Results as given in US20050113334A1, “COMPOSITION AND METHOD” (priority 2003, published 2005).

Test system: Desulfovibrio spp.
Test: In vitro fermentation of fibers with canine fecal inoculum, FISH enumeration
Type: cell-based
Conditions: 39° C.; for Numbers of Desulfovibrio spp., LOG10 CFU AT 8 HOUR: after 8 hour incubation
Experimental: Fermentation vessels containing anaerobic phosphate buffered medium were prepared and 1 ml canine fecal inoculum (10% w/v fecal sample to buffer) added. The composition of the media was as described in Sunvold G D, Hussein H S, Fahey G C, Merchen N R, and Reinhart G A (1995), In vitro fermentation of selected fiber sources by dogs fecal inoculum and in vivo digestion and metabolism of fiber supplemental diets. J. Animal Sci. 73:1099-1109 (1995). Fermentations were carried out at 39° C. Experiments were conducted in a blind-coded manner with different fibers. […] An aliquot of this was prepared for FISH. […] Genus specific 16SrRNA-targeted probes were synthesized and monolabelled at the 5″ end with fluorescent dye to detect bacteria of interest in the fermentation media. Total nucleic acid was stained to obtain total microbial counts.

Substance	Numbers of Desulfovibrio spp., Log10 CFU AT 0 HOUR	Numbers of Desulfovibrio spp., LOG10 CFU AT 8 HOUR
Arabinogalactan	7.5 ± 0.3 log cfu/ml of fecal inoculum	6.4 ± 1.0 log cfu/ml of fecal inoculum
Xylooligosaccharide	7.2 ± 0.4 log cfu/ml of fecal inoculum	6.8 ± 0.9 log cfu/ml of fecal inoculum
Inulin	7.3 ± 0.2 log cfu/ml of fecal inoculum	6.4 ± 1.0 log cfu/ml of fecal inoculum
Fructooligosaccharide	6.9 ± 1.0 log cfu/ml of fecal inoculum	6.3 ± 0.8 log cfu/ml of fecal inoculum
Galacto-oligosaccharide	7.0 ± 1.0 log cfu/ml of fecal inoculum	6.8 ± 0.9 log cfu/ml of fecal inoculum
